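These data come from cells grown in 96-well plates and exposed to compound for 48 hours at five concentrations. Here, GI50 denotes the concentration required for 50% inhibition of growth. At the TGI there is no net growth.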 Some results are limits rather than exact numbers.

Results on 13 compounds are retold here after PubChem BioAssay (NCI).

Test systems include A498 renal; A549 NSCLC; CCRF-CEM leukemia; NCI-H522 lung; SF-295 CNS; SN12C renal; UACC-62 melanoma; DU-145 prostate; MCF7 breast; HS 578T breast.
What all share (experiment): DTP human tumour cell line panel, 48 h

In the case of `O=c1cc2n(c(=O)[nH]1)C1OC(C(O)C1O)[C@H]2CCO` (stereo partly specified), the total growth inhibition concentration (TGI) in the test on A498 renal, in the test with A549 NSCLC, in the test on CCRF-CEM leukemia, in the test with NCI-H522 lung, in the test on SF-295 CNS and in the test on SN12C renal was > 100 µM each time. Also, the total growth inhibition concentration (TGI) with UACC-62 melanoma was > 100 µM.
Turning to `COCC1C(=O)c2cc3c(cc2C12C=CC1(C=C2)OCCO1)OCO3` (stereo unspecified), the total growth inhibition concentration (TGI) was found to be 28.9 µM in the test with A549 NSCLC; 4.38 µM with CCRF-CEM leukemia; 3.96 µM with NCI-H522 lung; 27.9 µM with SF-295 CNS; 22.9 µM in the test with SN12C renal; 24.6 µM in the test on UACC-62 melanoma.
As to `Nc1nc(=O)n(C2CC(O)C(O)C(CO)O2)cc1F` (stereo unspecified), the TGI in the test on A498 renal, with A549 NSCLC, with CCRF-CEM leukemia, in the test on NCI-H522 lung, with SF-295 CNS and in the test with SN12C renal was > 100 µM each time. Further, the TGI in the test with UACC-62 melanoma is > 100 µM.
Turning to `COC(=O)CCC(=O)CC(=O)C(=O)Nc1ccc(F)cc1`, the concentration for total growth inhibition (TGI) in the test on A498 renal, with A549 NSCLC, in the test on CCRF-CEM leukemia, with NCI-H522 lung, in the test on SN12C renal and with UACC-62 melanoma was > 100 µM throughout.
Consider `CC1(C)CC[C@]2(C(=O)n3ccnc3)CC[C@]3(C)[C@H](C(=O)C=C4[C@@]5(C)C=C(C#N)C(=O)C(C)(C)[C@@H]5CC[C@]43C)[C@@H]2C1`, for which the 50% growth inhibitory concentration (GI50) is 0.112 µM in the test on A498 renal; < 0.0214 µM in the test with A549 NSCLC; < 0.01 µM in the test on CCRF-CEM leukemia; < 0.01 µM in the test with DU-145 prostate; < 0.01 µM in the test with MCF7 breast; 0.0168 µM in the test with NCI-H522 lung. Also, the 50% growth inhibitory concentration (GI50) was 0.0152 µM in the test on SF-295 CNS, < 0.0177 µM with SN12C renal and < 0.014 µM in the test on UACC-62 melanoma. For the same compound, the concentration for total growth inhibition (TGI) in the test with A498 renal was 0.28 µM; with CCRF-CEM leukemia it was 0.0438 µM; with DU-145 prostate it was 0.0174 µM; in the test on MCF7 breast it was > 100 µM; in the test with NCI-H522 lung, 0.0585 µM; with SF-295 CNS, 0.0975 µM. Besides, the TGI in the test with SN12C renal is 0.0404 µM; in the test with UACC-62 melanoma, < 0.0336 µM.
In the case of `O=C(Nc1ccc(Cl)c(Cl)c1)C(=O)Nn1c(=S)[nH]c2ccccc2c1=O`, the TGI with A498 renal, with A549 NSCLC, in the test with CCRF-CEM leukemia, in the test with NCI-H522 lung, in the test on SF-295 CNS and with SN12C renal was > 100 µM in each case. In addition, in the test with UACC-62 melanoma, the TGI is > 100 µM.
Take `CN(C)CCCNC(=O)c1cc(NC(=O)CCNC(=O)c2ccc3c(c2)C(=O)c2ccccc2C3=O)cn1C`: the GI50 was > 100 µM in the test with A498 renal; > 100 µM with A549 NSCLC; 64.1 µM in the test on CCRF-CEM leukemia; > 100 µM in the test with HS 578T breast; 20.1 µM with MCF7 breast; > 100 µM in the test on NCI-H522 lung. Also, the GI50 in the test on SF-295 CNS, in the test with SN12C renal and with UACC-62 melanoma was > 100 µM in each case. Also, the TGI in the test with A498 renal is > 100 µM; in the test on A549 NSCLC it was > 100 µM; in the test with CCRF-CEM leukemia it was > 100 µM; with HS 578T breast it was > 100 µM; with MCF7 breast it was 56.4 µM; in the test with NCI-H522 lung it was > 100 µM. In addition, the total growth inhibition concentration (TGI) in the test on SF-295 CNS, in the test on SN12C renal and in the test with UACC-62 melanoma was > 100 µM in each case.
As to `O=C(CC1(O)C(=O)Nc2c(Cl)cccc21)c1ccccc1` (stereo unspecified), the TGI in the test on A549 NSCLC, in the test on CCRF-CEM leukemia, with NCI-H522 lung, in the test on SF-295 CNS and in the test with SN12C renal was > 100 µM in each case.
For `Cc1cc2cc(Cl)ccc2nc1C(=O)c1ccccc1`, the concentration for total growth inhibition (TGI) with A549 NSCLC, with NCI-H522 lung, in the test on SF-295 CNS, with SN12C renal and with UACC-62 melanoma was > 100 µM each time.
Consider `COc1ccc(CN2C(=O)C(Cc3cc(OC)c(OC)c(C)c3OC)N(C(=O)OC(C)C)C(=O)/C2=C/c2cc(OC)c(OC)c(C)c2OC)cc1` (stereo unspecified), for which the TGI with A498 renal, in the test on A549 NSCLC, in the test with CCRF-CEM leukemia, with NCI-H522 lung, in the test with SF-295 CNS and with SN12C renal was > 100 µM throughout. The total growth inhibition concentration (TGI) in the test on UACC-62 melanoma is > 100 µM.
For `C=CCCC(O)c1ccc(C(O)CCCCCCCCCCCC)o1` (stereo unspecified), the GI50 in the test with A549 NSCLC is 17.7 µM; in the test on CCRF-CEM leukemia, 18.4 µM; with DU-145 prostate it was 22.6 µM; in the test with HS 578T breast, 24.2 µM; with MCF7 breast it was 82.2 µM; with NCI-H522 lung it was 17.3 µM. In addition, the GI50 in the test with SF-295 CNS was 36.7 µM; with SN12C renal, 18.3 µM; with UACC-62 melanoma it was 17.3 µM. The total growth inhibition concentration (TGI) was 39.2 µM with A549 NSCLC; > 100 µM in the test with CCRF-CEM leukemia; 46.9 µM in the test with DU-145 prostate; 55.4 µM in the test with HS 578T breast; > 100 µM with MCF7 breast; 44.4 µM in the test on NCI-H522 lung. In addition, the concentration for total growth inhibition (TGI) in the test on SF-295 CNS is > 100 µM; in the test on SN12C renal it was 34.2 µM; in the test on UACC-62 melanoma it was 32.8 µM.
With `Cc1cc2c(cc1C)N1Cc3c(ccc(C)c3C)N(C2)C1` (tested in a mixture with another compound), the total growth inhibition concentration (TGI) in the test with A549 NSCLC, in the test with CCRF-CEM leukemia, with NCI-H522 lung, with SF-295 CNS and in the test with UACC-62 melanoma was > 100 µM in each case.
As to `CCOc1cc(C=O)c2c(ccc3ccc(OC)c(OC)c32)c1OC`, the TGI with A549 NSCLC, with CCRF-CEM leukemia, in the test on DU-145 prostate, with HS 578T breast, in the test with NCI-H522 lung and with SF-295 CNS was > 100 µM in each case. For the same compound, the concentration for total growth inhibition (TGI) with SN12C renal and in the test with UACC-62 melanoma was > 100 µM each time.
